Data on two compounds can be found in EP3708171A1, “TREATMENT OF VITAMIN D DEFICIENCY WITH 25(OH) VITAMIN D IN CRITICALLY ILL PATIENTS” (Bouillon, Roger, priority 2019, dated 2020).

By Vd is commonly meant the apparent volume that relates the amount in the body to the concentration in plasma or blood.

The conditions of data set [1]: cited from earlier work.
The nature of data set [2]: Randomized, placebo-controlled pilot study of IV 25OHD supplementation in critically ill (ICU) patients; serum vitamin D metabolites and DBP (Example 1). Format: in vivo. The method, then:
The study was performed in accordance with the 1964 Declaration of Helsinki and its later amendments. The protocol and consent forms were approved by the institutional review board of the University Hospitals Leuven (ML2462). The study was registered at www.controlled-trials.com (ISRCTN24385496). Patients with an anticipated stay in the intensive care unit (ICU) of more than 10 days were eligible for inclusion in the study. Patients younger than 18 years, those suffering from chronic bone or kidney disease, and those who were treated with glucocorticoids before ICU admission were excluded. Patients were compared with healthy controls matched for age, gender and body mass index, of whom blood was sampled during summer time.
Upon ICU admission, patients were randomly allocated to either a daily IV injection of placebo (NaCl 0.9%) or to an IV loading dose of 200 µg 25OHD, followed by an IV replacement dose of 15 µg 25OHD per day, from ICU admission onward and continued for 10 days. Patients from both groups also received the usual vitamin D supplement, which consisted of a daily intravenous cholecalciferol supplement of +/-200 IU (5 µg, as part of 10 ml of Cernevit® (Clinitec-Baxter, Brussels, Belgium). 25OHD was obtained from Solvay Pharmaceuticals (Brussels, Belgium) and dissolved in ethanol by the hospital pharmacy under laminar flow conditions in glass vials, containing 200 µg/ml per vial for the loading dose and 15 µg/ml per vial for the replacement dose. A purity control was performed on the prepared samples using HPLC. Similarly, placebo vials were also prepared by the hospital pharmacy (1 ml NaCl 0.9% per vial). All vials were blinded by the hospital pharmacy.
The effect of IV 25OHD supplementation on vitamin D status (25OHD, 1,25(OH)2D, 24,25(OH)2D) was studied. Clinical outcome parameters (organ dysfunction (sequential organ failure assessment (SOFA) score, days on mechanical ventilation, need for renal replacement therapy), prolonged (>3 days) antibiotic therapy, ICU length of stay and mortality) were registered as safety endpoints. All patients were followed up and monitored for possible adverse events beyond the intervention period of 10 days until discharge or death. Analysts and investigators were blinded for treatment allocation.
Every day at 06.00 a.m., from ICU admission until ICU discharge or death, undiluted blood samples were taken through an arterial line that had been placed for clinical purposes. Serum and plasma samples were frozen and subsequently stored at -20°C until assay. Concentrations of 25OHD, 1,25(OH)2D, and 24,25(OH)2D were measured in serum.
25OHD was measured by competitive binding assay; 1,25(OH)2D by radioimmunoassay (RIA), and DBP by radial immunodiffusion, as previously reported by Bouillon et al (J Clin Invest 1981 67 589-596). A subset of the original 25OHD measurements were subsequently validated by re-analyses using LC-MS/MS, currently considered the gold standard. To this end, 58 samples from patients (treated with 25OHD or placebo) and controls were selected at random covering the full range of 25OHD serum concentrations (3.7-70.7 ng/ml). Briefly, serum proteins were precipitated using zinc sulphate solution, spiked with d6-25OHD3 as internal standard. After mixing and centrifugation, the supernatant was transferred to the liquid chromatography autosampler. We used a ScieX 5500 QTRAP mass spectrometer connected with a Shimadzu chromatographic system. The method consisted of an online clean-up step using a Strata C8 extraction cartridge. After loading and cleaning, the analytes were eluted by back-flushing. A Kinetex F5 column was used as analytical column. Atmospheric-pressure chemical ionization (APCI) positive mode was used. Mass transitions of 383>211, 295>211 and 389>211 were used for 25OHD3, 25OHD2 and the internal standard, respectively. Within-run and between-run CVs at clinically relevant concentrations varied between 6.3-7.4% and 6.9-8.8% respectively. […]

Data set [3] is described as follows: Further trial of IV 25OHD with higher replacement dose in critically ill patients (Example 2). The format is in vivo. The settings on record: IV loading dose, then 25 µg 25OHD per day for 10 days. The method, then:
The study design and materials are similar to the one described in Example 1, the difference being that the patients are administered higher bolus and daily replacement doses of 25OHD for at least two days after the bolus administration and preferably during the hospital stay of such patients .
The study is performed in accordance with the 1964 Declaration of Helsinki and its later amendments. Patients with an anticipated stay in the intensive care unit (ICU) of more than 10 days are considered eligible for inclusion in the study. […]
The effect of IV 25OHD supplementation on vitamin D status (25OHD) is studied. […] All patients are followed up and monitored for possible adverse events beyond the intervention period of 10 days until discharge or death. […]
Every day at 06.00 a.m., from ICU admission until ICU discharge or death, undiluted blood samples are taken through an arterial line that is present for clinical purposes. […] Concentrations of 25OHD are measured in serum.
StatView 5.0.1 (SAS Institute Inc., Cary, NC) and JMP13 (SAS) is used for the statistical analyses. […] Variables with a normal distribution are analyzed with Student's t-test, variables with a non-normal distribution with Mann-Whitney U, and proportions with the chi-square test. […]

For data set [4] the following is noted: normal subjects; cited from earlier work.
[5] abbreviates: daily administration of 15 µg 25(OH)D (Ingels et al. 2010).

In the case of `C=C1CC[C@H](O)C/C1=C/C=C1\CCC[C@]2(C)[C@@H]([C@H](C)CCCC(C)(C)O)CC[C@@H]12` [25OHD, 25-hydroxyvitamin D], in data set [1] (setting [5]), the “level of 1,25(OH)2D3” value is “only a transient increase” and the “serum levels of 25OHD” value is on record as “increased the serum levels of 25OHD”. The “25OHD serum concentration as compared with placebo” value in data set [2] (10-day period, IV replacement dose 15 µg 25OHD per day) is given as “remained elevated throughout the 10-day period”. Besides, in data set [2] (IV 200 µg loading dose, then 15 µg/day for 10 days), the “concentrations of 1,25(OH)2D” value is on record as “only transiently increased”. Also, in data set [2] (IV loading dose of 200 µg 25OHD), the “increase in serum 25OHD after bolus” value was determined as 11 ng/mL. Moreover, the “increase of 25OHD levels” value in data set [2] (daily supplement of 15 µg of 25OHD) was “about 8 ng/ml”. Also, in data set [2] (following the intravenous loading dose of 200 µg 25OHD, 20 ng/ml target), the 25OHD serum concentrations entry was “instantly rose but did not reach the 20 ng/ml target”. Besides, the “increase of 25OHD levels in the subgroup receiving the active treatment” value in data set [2] (from 9.2 ng/ml baseline) was 6.8 ng/mL. The “catabolism of 25OHD in ICU patients versus normal subjects of the same age” value in data set [2] (human, in vivo) is recorded as “at least 3 fold”. Besides, the Vd in data set [2] (human, in vivo, iv) was around 18 L. In addition, the “safety endpoints (clinical outcome parameters)” value in data set [3] is on record as “positive effects”. Also, the “increase of serum 25OHD per daily dose of 1 ug of 25OHD” value in data set [4] was 1.2 ng/mL.

As to `C=C1CC[C@H](O)C/C1=C/C=C1\CCC[C@]2(C)[C@@H]([C@H](C)CCCC(C)C)CC[C@@H]12` [vitamin D3], the “outcome of critically ill patients” value in data set [1] (oral, high dose, except subgroup with baseline severe vitamin D deficiency (lower hospital mortality)) is “did not affect outcome”.
